From the kinase profiling compilation of Christmann-Franck et al. (2016)

Key:
Experiment in all cases: KINOMEscan competition binding
Settings in all cases: compound 10.0 µM
[1] = test system: PIK3CA (human), P42336 [E545K]
[2] = test system: ABL1 (human), P00519 [M351T]
[3] = test system: EGFR (human), P00533 [P753S; 747-752 del]
[4] = test system: FLT3 (human), P36888 [ITD]
[5] = test system: EGFR (human), P00533 [G719S]
[6] = test system: PIK3CA (human), P42336 [H1047Y]
[7] = test system: EGFR (human), P00533 [L861Q]
[8] = test system: PIK3CA (human), P42336 [I800L]
PIK3CA (human), P42336 [I800L], sequence (P42336 whole entry I800L, looked up): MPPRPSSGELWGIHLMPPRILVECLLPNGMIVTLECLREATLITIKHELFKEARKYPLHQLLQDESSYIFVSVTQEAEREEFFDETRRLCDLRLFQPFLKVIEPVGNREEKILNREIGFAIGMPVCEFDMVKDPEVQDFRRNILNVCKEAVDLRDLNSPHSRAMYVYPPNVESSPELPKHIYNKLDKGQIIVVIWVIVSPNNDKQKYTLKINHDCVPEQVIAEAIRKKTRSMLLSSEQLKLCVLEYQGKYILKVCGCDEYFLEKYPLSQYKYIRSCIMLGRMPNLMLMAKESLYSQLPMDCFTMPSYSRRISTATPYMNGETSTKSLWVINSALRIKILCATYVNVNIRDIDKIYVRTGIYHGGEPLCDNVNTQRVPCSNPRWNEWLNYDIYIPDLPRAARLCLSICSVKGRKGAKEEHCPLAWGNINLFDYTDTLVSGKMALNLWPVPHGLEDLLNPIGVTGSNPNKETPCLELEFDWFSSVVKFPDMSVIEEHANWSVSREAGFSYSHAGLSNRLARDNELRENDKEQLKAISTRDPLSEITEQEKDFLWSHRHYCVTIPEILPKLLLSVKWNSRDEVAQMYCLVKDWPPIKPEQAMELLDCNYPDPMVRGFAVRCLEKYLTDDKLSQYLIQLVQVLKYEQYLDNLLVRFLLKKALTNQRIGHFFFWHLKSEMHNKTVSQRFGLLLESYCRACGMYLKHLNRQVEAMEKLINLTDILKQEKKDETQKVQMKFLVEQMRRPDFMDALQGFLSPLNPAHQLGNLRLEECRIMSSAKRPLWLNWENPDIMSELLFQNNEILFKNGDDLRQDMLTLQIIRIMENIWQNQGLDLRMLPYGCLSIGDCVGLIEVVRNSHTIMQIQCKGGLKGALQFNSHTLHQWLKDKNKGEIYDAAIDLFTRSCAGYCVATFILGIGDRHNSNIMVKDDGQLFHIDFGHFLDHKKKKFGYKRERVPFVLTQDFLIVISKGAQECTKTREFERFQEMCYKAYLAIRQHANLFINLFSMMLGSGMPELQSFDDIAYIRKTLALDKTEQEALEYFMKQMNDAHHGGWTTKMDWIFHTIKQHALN

[9] = test system: KIT (human), P10721 [D816V]
KIT (human), P10721 [D816V], sequence (P10721 whole entry D816V, looked up): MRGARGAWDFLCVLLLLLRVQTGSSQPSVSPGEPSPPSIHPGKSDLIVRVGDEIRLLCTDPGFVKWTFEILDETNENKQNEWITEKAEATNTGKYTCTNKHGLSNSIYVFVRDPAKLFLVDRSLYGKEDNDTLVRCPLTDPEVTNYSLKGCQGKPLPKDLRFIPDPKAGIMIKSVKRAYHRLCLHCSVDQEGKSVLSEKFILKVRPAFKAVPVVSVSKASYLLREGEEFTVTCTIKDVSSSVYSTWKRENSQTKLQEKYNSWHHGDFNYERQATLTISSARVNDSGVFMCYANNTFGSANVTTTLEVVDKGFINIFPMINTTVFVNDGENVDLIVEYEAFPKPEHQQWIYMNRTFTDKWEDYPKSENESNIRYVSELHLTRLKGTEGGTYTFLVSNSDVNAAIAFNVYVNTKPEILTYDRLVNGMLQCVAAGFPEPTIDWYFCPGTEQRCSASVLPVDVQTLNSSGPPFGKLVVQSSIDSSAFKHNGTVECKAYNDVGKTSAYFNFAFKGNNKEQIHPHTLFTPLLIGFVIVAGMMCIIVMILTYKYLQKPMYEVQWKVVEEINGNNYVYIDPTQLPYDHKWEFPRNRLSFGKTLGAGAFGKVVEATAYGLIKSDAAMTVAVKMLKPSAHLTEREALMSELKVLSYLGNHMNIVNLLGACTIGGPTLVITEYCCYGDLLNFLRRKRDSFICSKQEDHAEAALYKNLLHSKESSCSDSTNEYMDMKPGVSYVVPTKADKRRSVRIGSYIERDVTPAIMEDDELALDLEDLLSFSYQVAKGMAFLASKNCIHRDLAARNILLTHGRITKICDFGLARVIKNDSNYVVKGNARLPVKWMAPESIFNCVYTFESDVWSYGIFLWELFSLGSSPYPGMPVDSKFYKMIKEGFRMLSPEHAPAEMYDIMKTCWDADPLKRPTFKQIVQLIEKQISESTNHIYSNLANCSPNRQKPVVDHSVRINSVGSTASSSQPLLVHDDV

[10] = test system: KIT (human), P10721 [V559D/T670I]
KIT (human), P10721 [V559D/T670I], sequence (P10721 whole entry V559D/T670I, looked up): as the sequence (P10721 whole entry D816V, looked up) above, with V559D, T670I, V816D counted along it

[11] = test system: KIT (human), P10721 [V559D]
KIT (human), P10721 [V559D], sequence (P10721 whole entry V559D, looked up): as the sequence (P10721 whole entry D816V, looked up) above, with V559D, V816D counted along it

[12] = test system: EIF2AK4 KD2 (human), Q9P2K8 [S808G]
EIF2AK4 KD2 (human), Q9P2K8 [S808G], sequence (Q9P2K8 whole entry S808G, looked up): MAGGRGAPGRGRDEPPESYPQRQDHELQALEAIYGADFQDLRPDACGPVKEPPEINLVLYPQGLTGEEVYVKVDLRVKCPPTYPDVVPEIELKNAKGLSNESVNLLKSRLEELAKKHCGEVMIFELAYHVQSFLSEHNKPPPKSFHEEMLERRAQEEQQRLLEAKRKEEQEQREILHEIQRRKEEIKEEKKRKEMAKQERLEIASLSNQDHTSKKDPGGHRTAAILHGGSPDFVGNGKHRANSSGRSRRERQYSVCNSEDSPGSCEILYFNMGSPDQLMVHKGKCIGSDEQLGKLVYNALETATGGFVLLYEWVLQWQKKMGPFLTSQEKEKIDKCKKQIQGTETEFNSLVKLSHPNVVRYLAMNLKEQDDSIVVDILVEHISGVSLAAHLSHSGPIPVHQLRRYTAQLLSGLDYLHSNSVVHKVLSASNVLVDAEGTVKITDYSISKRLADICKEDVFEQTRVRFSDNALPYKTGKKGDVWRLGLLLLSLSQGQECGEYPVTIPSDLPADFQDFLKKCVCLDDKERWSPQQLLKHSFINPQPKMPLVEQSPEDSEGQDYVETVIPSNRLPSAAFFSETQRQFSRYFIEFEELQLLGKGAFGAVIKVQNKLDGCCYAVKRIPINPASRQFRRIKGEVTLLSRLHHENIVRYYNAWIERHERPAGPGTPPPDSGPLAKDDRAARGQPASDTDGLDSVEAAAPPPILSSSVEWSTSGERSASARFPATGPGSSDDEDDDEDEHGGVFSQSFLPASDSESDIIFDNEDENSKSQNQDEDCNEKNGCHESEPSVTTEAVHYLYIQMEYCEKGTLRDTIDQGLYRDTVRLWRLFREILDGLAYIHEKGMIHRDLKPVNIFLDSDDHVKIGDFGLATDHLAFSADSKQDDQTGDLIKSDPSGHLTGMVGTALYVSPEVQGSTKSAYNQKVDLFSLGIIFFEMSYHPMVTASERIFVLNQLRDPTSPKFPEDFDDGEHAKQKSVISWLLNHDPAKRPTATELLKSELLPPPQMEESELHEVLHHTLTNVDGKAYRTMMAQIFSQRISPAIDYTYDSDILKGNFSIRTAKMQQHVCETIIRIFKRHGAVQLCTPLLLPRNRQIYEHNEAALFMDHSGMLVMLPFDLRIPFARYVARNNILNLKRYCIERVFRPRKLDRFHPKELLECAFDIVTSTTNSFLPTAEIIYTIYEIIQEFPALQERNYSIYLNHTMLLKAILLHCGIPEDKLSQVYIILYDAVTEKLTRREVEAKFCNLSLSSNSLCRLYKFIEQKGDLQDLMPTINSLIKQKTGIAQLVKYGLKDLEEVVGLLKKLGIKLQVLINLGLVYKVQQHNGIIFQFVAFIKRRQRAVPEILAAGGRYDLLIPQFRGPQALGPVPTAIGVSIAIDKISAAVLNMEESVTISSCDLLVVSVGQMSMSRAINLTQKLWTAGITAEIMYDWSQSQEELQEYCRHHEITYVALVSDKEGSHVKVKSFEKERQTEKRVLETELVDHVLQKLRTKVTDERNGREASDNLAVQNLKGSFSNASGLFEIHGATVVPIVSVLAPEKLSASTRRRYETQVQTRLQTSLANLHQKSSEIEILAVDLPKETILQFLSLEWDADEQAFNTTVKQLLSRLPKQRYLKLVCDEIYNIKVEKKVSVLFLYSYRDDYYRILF

[13] = test system: FLT3 (human), P36888 [K663Q]
[14] = test system: EGFR (human), P00533 [746-750 del]
[15] = test system: FLT3 (human), P36888 [N841I]
[16] = test system: ABL1 (human), P00519 [E255K]
[17] = test system: PIK3CA (human), P42336 [Q546K]
PIK3CA (human), P42336 [Q546K], sequence (P42336 whole entry Q546K, looked up): as the sequence (P42336 whole entry I800L, looked up) above, with Q546K, L800I counted along it

[18] = test system: PIK3CA (human), P42336 [E545A]
PIK3CA (human), P42336 [E545A], sequence (P42336 whole entry E545A, looked up): as the sequence (P42336 whole entry I800L, looked up) above, with E545A, L800I counted along it

[19] = test system: PIK3CA (human), P42336 [C420R]
PIK3CA (human), P42336 [C420R], sequence (P42336 whole entry C420R, looked up): as the sequence (P42336 whole entry I800L, looked up) above, with C420R, L800I counted along it

PIK3CA (human), P42336 [H1047Y], sequence (P42336 whole entry H1047Y, looked up): as the sequence (P42336 whole entry I800L, looked up) above, with L800I, H1047Y counted along it
PIK3CA (human), P42336 [E545K], sequence (P42336 whole entry E545K, looked up): as the sequence (P42336 whole entry I800L, looked up) above, with E545K, L800I counted along it

SMILES	kinase still bound, per cent of control [1]	kinase still bound, per cent of control [2]	kinase still bound, per cent of control [3]	kinase still bound, per cent of control [4]	kinase still bound, per cent of control [5]	kinase still bound, per cent of control [6]	kinase still bound, per cent of control [7]	kinase still bound, per cent of control [8]	kinase still bound, per cent of control [9]	kinase still bound, per cent of control [10]	kinase still bound, per cent of control [11]	kinase still bound, per cent of control [12]	kinase still bound, per cent of control [13]	kinase still bound, per cent of control [14]	kinase still bound, per cent of control [15]	kinase still bound, per cent of control [16]	kinase still bound, per cent of control [17]	kinase still bound, per cent of control [18]	kinase still bound, per cent of control [19]
CNC(=O)Nc1ccc(-c2nc(N3CC4CCC(C3)O4)c3cnn(C4CCC5(CC4)OCCO5)c3n2)cc1	11%	100%	62%	100%	69%	9.6%	64%	5%	82%	100%	85%	83%	69%	38%	89%	100%	11%	8.8%	11%
O=C(Nc1cccc(Nc2ncc(Br)c(NCCc3cnc[nH]3)n2)c1)N1CCCC1	100%	0.5%	63%	0%	51%	62%	75%	100%	0.15%	2.3%	0.05%	0.7%	0.1%	62%	0%	0.15%	46%	94%	81%
N#Cc1cc(-c2ccnc(Nc3ccc(-n4cnc(-c5cccnc5)n4)cc3)n2)cc(N2CCOCC2)c1	100%	69%	76%	28%	94%	100%	92%	64%	5.3%	4.2%	1%	3.3%	17%	67%	12%	75%	75%	58%	100%
O=c1cc(N2CCOCC2)oc2c(-c3cccc4c3sc3ccccc34)cccc12	24%	100%	90%	93%	100%	11%	100%	2.2%	58%	100%	80%	100%	86%	69%	100%	100%	16%	8.2%	19%
O=C1NC(=O)/C(=C/c2ccc3nccc(-c4ccncc4)c3c2)S1	0.75%	56%	74%	47%	78%	0.9%	87%	12%	63%	76%	30%	7.4%	37%	81%	39%	71%	1.3%	0.1%	0.4%
CC1=C(C(=O)Nc2cc3cn[nH]c3cc2F)C(c2ccc(C(F)(F)F)cc2)CC(=O)N1 (stereo not given)	100%	82%	100%	83%	57%	43%	91%	100%	49%	88%	82%	100%	78%	96%	75%	77%	32%	38%	63%
C=CC(=O)Nc1cc(-n2c(=O)ccc3cnc4ccc(-c5cn[nH]c5)cc4c32)ccc1C	21%	64%	53%	2.4%	79%	13%	22%	0.45%	5.8%	96%	66%	100%	18%	58%	1.6%	39%	21%	23%	18%
O=c1[nH]c2ccccc2n1C1CCN(Cc2ccc(-c3nc4cc5[nH]cnc5cc4nc3-c3ccccc3)cc2)CC1	69%	78%	73%	60%	83%	100%	66%	51%	79%	100%	100%	100%	56%	80%	61%	93%	80%	95%	62%
COc1cc2ncnc(-n3nc(-c4ccccn4)nc3N)c2cc1OC	40%	1.2%	68%	5.6%	57%	24%	64%	2.8%	0.15%	47%	3.4%	1.6%	21%	50%	0.4%	0.4%	38%	18%	41%
COc1cc2ncnc(Nc3cccc(Cl)c3)c2cc1OC	71%	1.4%	1.4%	24%	0.9%	95%	0.1%	46%	38%	49%	16%	56%	35%	3.3%	7.2%	6.6%	82%	98%	60%
